Laboratory results: patent publication US4202891A, “15-Oxygenated sterol compounds and the use of such compounds to inhibit the biosynthesis of sterols” (priority 1977, dated 1980)
Read-outs that look alike come from different tables or passages of the source. One block for each compound: values may come before it.

Legend:
[1] = system: sterol biosynthesis in L cells; assay: Inhibition of sterol synthesis from [1-14C]acetate in L cell cultures; format: cell-based; conditions: Mus musculus; for inhibition at 0.1 µM: read-out: inhibition of sterol synthesis
Method: (§1) The effect of various 15-oxygenated sterols on sterol biosynthesis in L cells and in primary cultures of mouse liver cells was tested essentially under conditions described in detail previously [A. A. Kandutsch and H. W. Chen, J. Biol. Chem., Vol. 248, pp. 8408-8417 (1973) and A. A. Kandutsch and H. W. Chen, J. Biol. Chem., Vol. 249, pp. 6057-6061 (1974`)].
(§2) The primary liver cell cultures were prepared from 16-day-old (C57BL/6J fetuses and grown in chemically defined medium (serum-free) as described in the above cited publications. The L cells, a subline of NCTC clone 929 mouse fibroblasts, were grown in chemically defined medium (serum-free) as described in the publications. These L cells are transformed fibroblasts which are regarded as malignant since they will grow as tumors if injected into the mouse strain from which they were initially obtained.
(§3) The preparation of steroid-containing media, procedures for assays of the conversion of [1-^14 C]acetate into digitonin-precipitable sterols, fatty acids, and CO2 and methods for the measurement of DNA, protein, and HMG-CoA reductase were as described in the published articles. L cell cultures were preincubated with the 15-oxygenated sterols and their derivatives for 4 hours, then [1-^14 C]acetate was added at a concentration of 4 μmoles per ml (4 μCi per ml); or the L cell cultures were incubated for 5 hours with the 15-oxygenated sterols before they were harvested for determination of microsomal HMG-CoA reductase activity.
(§4) The test compounds were tested over a range of at least 4 concentrations and the assay was repeated until the concentration of test compound required to produce 50% inhibition was located on the steeply declining portion of an activity vs. concentration plot. To diminish any possible effects of generalized differences in cellular metabolism, the rates of sterol synthesis from [1-^14 C]acetate were calculated as the ratio of [^14 C]sterols to [^14 C]fatty acids as described in the two cited articles by Kandutsch and Chen.

[2] = system: sterol biosynthesis in primary cultures of mouse liver cells; assay: Inhibition of sterol synthesis from [1-14C]acetate in primary cultures of liver cells; format: cell-based
Method: as §1, §2, §3
Conditions for incubating the 15-oxygenated sterols or their derivatives with liver cell cultures were similar to those described for L cell cultures except that the cultures were incubated with the test compounds for 12 hours before labeled acetate was added or before they were harvested for enzyme assay.
as §4

HMG-CoA reductase = assay: Reduction of the activity of HMG-CoA reductase in L cell cultures; format: cell-based, mouse; conditions: read-out: Concentrations Required for 50% Reduction of the Activity of HMG-CoA Reductase
Method: as §2, §3
A number of the 15-oxygenated sterols have also been tested with respect to their effects on the activity and/or levels of the enzyme HMG-CoA reductase (3-hydroxy-3-methylglutaryl coenzyme A reductase) in the L cells and in the liver cells. As noted previously, this enzyme catalyzes the reduction of 3-hydroxy-3-methylglutaryl coenzyme A to yield mevalonic acid, an essential intermediate in the biosynthesis of sterols and of a number of other essential compounds in cells.
Using the technique described by Kandutsch and Chen in the article cited in the previous example, the concentrations of various 15-oxygenated sterols required to reduce the levels of activity of HMG-CoA reductase by 50% was determined in the cells of the L cells in culture and of the primary cultures of liver cells.

serum cholesterol = assay: Effect on serum cholesterol levels in rats, daily subcutaneous injection (Examples 41, 42); format: in vivo, rat (male, Sprague-Dawley); conditions: Example 42; for Serum Cholesterol (Mean ± S.E.M.): 5 mg s.c. once a day in triolein
Method: Male rats of the Sprague-Dawley strain were fed Purina rat chow ad libidum. The rats were maintained on a light (7 A.M.-6 P.M.) -dark (6 P.M.-7 A.M.) cycle throughout the study and for a period of at least 4 days prior to the initiation of the study.
3β-Hexadecanoyloxy-5α-cholest-8(14)-en-15-one (5 mg; dissolved in 0.25 ml of triolein), hereafter referred to as the "palmitate ester", or 3β-hemisuccinoyloxy-5α-cholest-8(14)-en-15-one (5 mg; suspended in 0.25 ml of triolein through the use of a tight-fitting all-glass homogenizer), hereafter referred to as the "hemisuccinate ester", were administered subcutaneously once a day at about 12 P.M. to each of eight and six rats, respectively. Control animals (8) received daily injections of triolein (0.25 ml).
Blood samples were taken from the rats periodically and the serum cholesterol concentrations measured, in duplicate, by the method of Abell et al., J. Biol. Chem., Vol. 195, pp. 357-366 ([…]).
Following generally the procedure described in Example 41, 3β-Ethoxy-14α-ethyl-5α-cholest-7-en-15-one (5 mg) in triolein (0.25 ml) was administered subcutaneously once a day to each of eight rats. Control animals (8) received daily injections of triolein (0.25 ml).
Similarly, 5α-cholest-8(14)-en-3β-ol-15-one (2mg) in (0.2 ml) olive oil or 5.0 mg in 0.5 ml of olive oil) was administered subcutaneously once a day to each of a group of rats. The 2 mg dose was administered to 12 rats, while a like number of rats received daily injections of 0.2 ml olive oil. 5 mg doses were administered to each of 6 rats, while 6 control animals received daily injections of 0.5 ml olive oil. The rats used in this study initially weighed between 110 and 190 grams.

[3] = read-out: Concentrations Required for 50% Inhibition of Sterol Synthesis
[4] = read-out: concentration causing 50% inhibition of sterol synthesis

Structure (SMILES): CCO[C@H]1CC[C@@]2(C)[C@@H](CC=C3[C@@H]2CC[C@]2(C)[C@@H]([C@H](C)CCCC(C)C)CC(O)[C@@]32CC)C1 (stereo partly drawn) [3β-Ethoxy-14α-ethyl-5α-cholest-7-en-15-ol]
IC50 [1, 3]: 700 nM
IC50 [2, 3]: 4300 nM

Structure (SMILES): CC[C@]12C3=CC[C@H]4C[C@@H](OC(C)=O)CC[C@]4(C)[C@H]3CC[C@]1(C)[C@@H]([C@H](C)CCCC(C)C)C[C@H]2O [3β-acetoxy-14α-ethyl-5α-cholest-7-en-15β-ol]
IC50 [1, 3]: 30 nM
IC50 (HMG-CoA reductase): 130 nM

Structure (SMILES): CCO[C@H]1CC[C@@]2(C)[C@@H](CC=C3[C@@H]2CC[C@]2(C)[C@@H]([C@H](C)CCCC(C)C)CC(=O)[C@@]32CC)C1 [3β-ethoxy-14α-ethyl-5α-cholest-7-en-15-one]
IC50 [1, 3]: > 22000 nM
Serum Cholesterol (Mean ± S.E.M.) (serum cholesterol; day 0): 89.1 ± 2.2 mg per 100 ml
Serum Cholesterol (Mean ± S.E.M.) (serum cholesterol; day 6): 77.3 ± 2.1 mg per 100 ml
Serum Cholesterol (Mean ± S.E.M.) (serum cholesterol; day 10): 80.1 ± 2.3 mg per 100 ml
Serum Cholesterol (Mean ± S.E.M.) (serum cholesterol; day 15): 78.5 ± 3.3 mg per 100 ml
Serum Cholesterol (Mean ± S.E.M.) (serum cholesterol; day 21): 73.1 ± 2.3 mg per 100 ml
Serum Cholesterol (Mean ± S.E.M.) (serum cholesterol; day 27): 66.8 ± 2.6 mg per 100 ml
% Reduction (relative to triolein-treated rats) (serum cholesterol; 5 mg s.c. once a day, day 6): 4.8%
% Reduction (relative to triolein-treated rats) (serum cholesterol; 5 mg s.c. once a day, day 10): 3.4%
% Reduction (relative to triolein-treated rats) (serum cholesterol; 5 mg s.c. once a day, day 15): 3.8%
% Reduction (relative to triolein-treated rats) (serum cholesterol; 5 mg s.c. once a day, day 21): 11.5%
% Reduction (relative to triolein-treated rats) (serum cholesterol; 5 mg s.c. once a day, day 27): 18.3%
percentage reduction in serum cholesterol levels, mean value (S.E.M.) (serum cholesterol; 5 mg s.c. once a day, day 27 vs. day 0): 25.0

Structure (SMILES): CCCCCCCCCCCCCCCC(=O)O[C@H]1CC[C@@]2(C)[C@@H](CC=C3[C@@H]2CC[C@]2(C)[C@@H]([C@H](C)CCCC(C)C)C[C@H](O)[C@@]32CC)C1 [3β-hexadecanoyloxy-14α-ethyl-5α-cholest-7-en-15α-ol]
IC50 [1, 3]: 7000 nM

Structure (SMILES): CCCCCCCCCCCCCCCC(=O)O[C@H]1CC[C@@]2(C)[C@@H](CC=C3[C@@H]2CC[C@]2(C)[C@@H]([C@H](C)CCCC(C)C)C[C@@H](O)[C@@]32CC)C1 [3β-hexadecanoyloxy-14α-ethyl-5α-cholest-7-en-15β-ol]
IC50 [1, 3]: > 15100 nM

Structure (SMILES): CO[C@H]1CC[C@@]2(C)[C@@H](CC=C3[C@@H]2CC[C@]2(C)[C@@H]([C@H](C)CCCC(C)C)CC(=O)[C@@]32C)C1 [3β-methoxy-14α-methyl-5α-cholest-7-en-15-one]
IC50 [1, 3]: 20000 nM

Structure (SMILES): CC(C)CCC[C@@H](C)[C@H]1C[C@H](O)[C@@H]2C3=CC[C@H]4CC(=O)CC[C@]4(C)[C@H]3CC[C@]12C [5α,14β-Cholest-7-en-15α-ol-3-one, 5α,14β-cholest-7-en-15α-ol-3-one]
IC50 [1, 3]: 2000 nM

Structure (SMILES): CC(C)CCC[C@@H](C)[C@H]1C[C@@H](O)[C@@H]2C3=CC[C@H]4CC(=O)CC[C@]4(C)[C@H]3CC[C@]12C [5α,14β-Cholest-7-en-15β-ol-3-one, 5α,14β-cholest-7-en-15β-ol-3-one]
IC50 [1, 3]: 250 nM

IC50 ([1]; L cell cultures, read-out: Concentrations Required for 50% Inhibition of Sterol Synthesis): 500 nM
Structure (SMILES): CC(C)CCC[C@@H](C)[C@H]1CC(=O)C2=C3CC[C@H]4C[C@H](O)CC[C@]4(C)[C@H]3CC[C@@]21C [5α-Cholest-8(14)-en-3α-ol-15-one, 5α-cholest-8(14)-en-3α-ol-15-one]

Structure (SMILES): CC(C)CCC[C@@H](C)[C@H]1C[C@H](O)C2=C3CC[C@H]4C[C@@H](O)CC[C@]4(C)[C@H]3CC[C@@]21C [5α-Cholest-8(14)-en-3β,15α-diol]
IC50 [1, 3]: 3700 nM
IC50 [2, 3]: 31000 nM

Structure (SMILES): CC[C@@]12C(=O)C[C@H]([C@H](C)CCCC(C)C)[C@@]1(C)CC[C@H]1C2=CC[C@H]2C[C@H](O)CC[C@@]21C [14α-Ethyl-5α-cholest-7-en-3α-ol-15-one, 14α-ethyl-5α-cholest-7-en-3α-ol-15-one]
IC50 [1, 3]: < 100 nM
inhibition at 0.1 µM [1]: ~100%

Structure (SMILES): CC[C@]12C3=CC[C@H]4C[C@@H](O)CC[C@]4(C)[C@H]3CC[C@]1(C)[C@@H]([C@H](C)CCCC(C)C)C[C@@H]2O [14α-Ethyl-5α-cholest-7-en-3β,15α-diol, 14α-ethyl-5α-cholest-7-en-3β,15α-diol]
IC50 [1, 4]: 50 nM
IC50 [2, 3]: 60 nM
IC50 [2, 4]: 60 nM

Structure (SMILES): CC[C@]12C3=CC[C@H]4C[C@@H](O)CC[C@]4(C)[C@H]3CC[C@]1(C)[C@@H]([C@H](C)CCCC(C)C)C[C@H]2O [14α-Ethyl-5α-cholest-7-en-3β,15β-diol, 14α-ethyl-5α-cholest-7-en-3β,15β-diol]
IC50 [1, 3]: 400 nM
IC50 [2, 3]: 800 nM

Structure (SMILES): CC[C@]12C3=CC[C@H]4CC(=O)CC[C@]4(C)[C@H]3CC[C@]1(C)[C@@H]([C@H](C)CCCC(C)C)C[C@@H]2O [14α-Ethyl-5α-cholest-7-en-15α-ol-3-one, 14α-ethyl-5α-cholest-7-en-15α-ol-3-one]
IC50 [1, 3]: < 100 nM
inhibition at 0.1 µM [1]: ~100%

Structure (SMILES): CCCC[C@]12C3=CC[C@H]4C[C@@H](O)CC[C@]4(C)[C@H]3CC[C@]1(C)[C@@H]([C@H](C)CCCC(C)C)C[C@@H]2O [14α-n-Butyl-5α-cholest-7-en-3β,15α-diol, 14α-n-butyl-5α-cholest-7-en-3β,15α-diol]
IC50 [1, 3]: 5000 nM

Structure (SMILES): CCCC[C@]12C3=CC[C@H]4C[C@@H](O)CC[C@]4(C)[C@H]3CC[C@]1(C)[C@@H]([C@H](C)CCCC(C)C)C[C@H]2O [14α-n-Butyl-5α-cholest-7-en-3β,15β-diol, 14α-n-butyl-5α-cholest-7-en-3β,15β-diol]
IC50 [1, 3]: 4400 nM

Structure (SMILES): CCCC[C@@]12C(=O)C[C@H]([C@H](C)CCCC(C)C)[C@@]1(C)CC[C@H]1C2=CC[C@H]2C[C@@H](O)CC[C@@]21C [14α-n-Butyl-5α-cholest-7-en-3β-ol-15-one, 14α-n-butyl-5α-cholest-7-en-3β-ol-15-one]
IC50 [1, 3]: 8300 nM

Structure (SMILES): CCC[C@]12C3=CC[C@H]4C[C@@H](O)CC[C@]4(C)[C@H]3CC[C@]1(C)[C@@H]([C@H](C)CCCC(C)C)C[C@@H]2O [14α-n-Propyl-5α-cholest-7-en-3β,15α-diol, 14α-n-propyl-5α-cholest-7-en-3β,15α-diol]
IC50 [1, 3]: 1100 nM

Structure (SMILES): CCC[C@]12C3=CC[C@H]4C[C@@H](O)CC[C@]4(C)[C@H]3CC[C@]1(C)[C@@H]([C@H](C)CCCC(C)C)C[C@H]2O [14α-n-Propyl-5α-cholest-7-en-3β,15β-diol, 14α-n-propyl-5α-cholest-7-en-3β,15β-diol]
IC50 [1, 3]: 4100 nM

Structure (SMILES): CCC[C@@]12C(=O)C[C@H]([C@H](C)CCCC(C)C)[C@@]1(C)CC[C@H]1C2=CC[C@H]2C[C@@H](O)CC[C@@]21C [14α-n-propyl-5α-cholest-7-en-3β-ol-15-one]
IC50 [1, 3]: 3400 nM
